Experiments:
Enterobacter cloacae = assay: microbe, parasite or virus in culture; assay type: cell-based; details: for MIC: Enterobacter cloacae ATCC 13047, CAA supplemented with human serum
Procedure: (§1) Determination of Minimal Inhibitory Concentrations (MIC).
(§2) Additional MIC testing was performed for several peptides against the ESKAPE pathogens Escherichia coli, Enterobacter cloacae, Klebsiella pneumoniae, and Acinetobacter baumannii, in CAA supplemented with human serum (Table D).

Escherichia coli = assay: microbe, parasite or virus in culture; assay type: cell-based; details: for MIC: Escherichia coli ATCC 25922, CAA supplemented with human serum
Procedure: as §1, §2

M. smegmatis = assay: 45 hr MIC against M. smegmatis (NTM), Mueller Hinton broth; assay type: cell-based, Mycobacterium smegmatis; details: M. smegmatis MC^2 155, Run #1
Klebsiella pneumoniae = assay type: cell-based; details: for MIC: Klebsiella pneumoniae HM-44, CAA supplemented with human serum; for MIC50 / MIC100 / MIC Range: K. pneumoniae isolates (n per peptide in table)
Procedure: as §1, §2

Acinetobacter baumannii = assay: microbe, parasite or virus in culture; assay type: cell-based; details: for MIC: Acinetobacter baumannii ATCC BAA 747, CAA supplemented with human serum; for MIC50 / MIC100 / MIC Range: A. baumannii isolates (n per peptide in table)
[1] = test system: carbapenem-resistant P. aeruginosa clinical isolate CFS-1292; assay: MIC by modified CLSI broth microdilution against P. aeruginosa CFS-1292 (CAA, CAA + human serum); assay type: cell-based, Pseudomonas aeruginosa; details: for MIC (μg/mL) against CFS-1292 in 100% CAA (1st run/2nd run): 1st run or single value
[2] = Stability assessment in 100% CAA; assay type: in vitro ADME; design: unit not given beside the values
Procedure: Stability was assessed after incubation in 100% human serum at 37° C. after 10 minutes, 1 hour, and 2 hours.
Stability assessment was further conducted in 100% CAA and rabbit serum using the same methodology discussed above.

[3] = test system: carbapenem-resistant bacterial strains; assay: organism not typed; assay type: cell-based
Excerpt: as §1

S. maltophilia = assay: MIC against S. maltophilia isolates; assay type: cell-based, Stenotrophomonas maltophilia; details: S. maltophilia isolates (n per peptide in table)
Procedure: as §1
In addition to the results discussed above in Example 3, further testing was conducted on several Chp peptides. MIC values were determined against different species, including P. aeruginosa, K. pneumoniae, A. baumannii, E. cloacae, E. coli, and S. maltophilia, and the results are presented below in Tables 40-45, wherein n=number of isolates tested for each species and MIC is measured as μg/mL.

Pseudomonas aeruginosa = assay: microbe, parasite or virus in culture; assay type: cell-based; details: P. aeruginosa isolates (n per peptide in table)
[4] = E. cloacae isolates (n per peptide in table)
[5] = E. coli isolates (n per peptide in table)
[6] = carbapenem-resistant isolate PA19
[7] = carbapenem-resistant isolate PA20
[8] = carbapenem-resistant isolate PA21
[9] = carbapenem-resistant isolate PA22
[10] = carbapenem-resistant isolate PA23
[11] = carbapenem-resistant isolate PA24
[12] = carbapenem-resistant isolate WLC-452

| Sequence | MIC (Enterobacter cloacae) | MIC (Escherichia coli) | 45 hr MIC (M. smegmatis) | MIC (Klebsiella pneumoniae) | MIC (Acinetobacter baumannii) | MIC (μg/mL) against CFS-1292 in 100% CAA (1st run/2nd run) [1] | MIC (μg/mL) against CFS-1292 in CAA + […] human serum [1] | MIC (100% CAA) [2] | MIC50 (Klebsiella pneumoniae) | MIC100 (Klebsiella pneumoniae) | MIC50 (Acinetobacter baumannii) | MIC100 (Acinetobacter baumannii) | MIC Range (Acinetobacter baumannii) | MIC [3, 6] | MIC [3, 7] | MIC [3, 8] | MIC [3, 9] | MIC [3, 10] | MIC [3, 11] | MIC [3, 12] | also measured |
| --- | --- | --- | --- | --- | --- | --- | --- | --- | --- | --- | --- | --- | --- | --- | --- | --- | --- | --- | --- | --- | --- |
| MKRRKMTRKGSKRLFTATADKTKSINTAPPPMRGGIRL [Chp7] | >32 µg/mL | 8 µg/mL | 128 µg/mL | 1 µg/mL | >32 µg/mL | 16 µg/mL | 1 µg/mL | 8 | – | – | – | – | – | – | – | – | – | – | – | – | – |
| MLTVWSDTPTIKRRKDMYRKRMSRKKSKKVFAKTAMKVNKRNHVKPMRGGYRI [Gkh3] | 4 µg/mL | 2 µg/mL | >128 µg/mL | 4 µg/mL | 4 µg/mL | 0.5 µg/mL | 1 µg/mL | 0.5 | >8 µg/mL | >8 µg/mL | 0.5 µg/mL | 1 µg/mL | 0.25 to 1 µg/mL | 2 µg/mL | >8 µg/mL | >8 µg/mL | >8 µg/mL | 8 µg/mL | 8 µg/mL | 2 µg/mL | MIC50 (Enterobacter cloacae; [4]): 4 µg/mL; MIC100 (Enterobacter cloacae; [4]): 4 µg/mL; MIC50 (Escherichia coli; [5]): 1 µg/mL; MIC100 (Escherichia coli; [5]): 4 µg/mL; MIC Range (Escherichia coli; [5]): 0.5 to 8 µg/mL; MIC50 (S. maltophilia): 8 µg/mL; MIC100 (S. maltophilia): >8 µg/mL; MIC50 (Pseudomonas aeruginosa): 8 µg/mL; MIC100 (Pseudomonas aeruginosa): >8 µg/mL |
| MMKYRKKMSAKSSRKQFTKGAMKVKGKNFTKPMRGGIRL [Unp5] | 4 µg/mL | 1 µg/mL | 8 µg/mL | 4 µg/mL | 8 µg/mL | 2 µg/mL | 0.5 µg/mL | 2 | >8 µg/mL | >8 µg/mL | 4 µg/mL | 8 µg/mL | 1 to 8 µg/mL | 8 µg/mL | >8 µg/mL | >8 µg/mL | >8 µg/mL | >8 µg/mL | >8 µg/mL | >8 µg/mL | MIC Range (Klebsiella pneumoniae): >8 µg/mL; MIC50 (S. maltophilia): >8 µg/mL; MIC100 (S. maltophilia): >8 µg/mL; MIC Range (S. maltophilia): >8 µg/mL; MIC50 (Pseudomonas aeruginosa): >8 µg/mL; MIC100 (Pseudomonas aeruginosa): >8 µg/mL |
| MRKRMSKRVDKKVFRRTAASAKKINIDPKIYRGGIRL [Osp1] | 32 µg/mL | 0.5 µg/mL | 32 µg/mL | 0.125 µg/mL | 32 µg/mL | 16 µg/mL | – | 4 | >8 µg/mL | >8 µg/mL | 8 µg/mL | 8 µg/mL | 2 to 8 µg/mL | >8 µg/mL | >8 µg/mL | >8 µg/mL | >8 µg/mL | >8 µg/mL | >8 µg/mL | 8 µg/mL | MIC Range (Klebsiella pneumoniae): >8 µg/mL; MIC50 (S. maltophilia): >8 µg/mL; MIC100 (S. maltophilia): >8 µg/mL; MIC Range (S. maltophilia): >8 µg/mL; MIC50 (Pseudomonas aeruginosa): >8 µg/mL; MIC100 (Pseudomonas aeruginosa): >8 µg/mL; MIC Range (Pseudomonas aeruginosa): >8 µg/mL |
| MRRYNVNKGKSAKKFRKQVSKTKVANLRSNPMRGGWRL [Unp6] | – | – | 16 µg/mL | – | – | – | – | 8 | – | – | – | – | – | – | – | – | – | – | – | – | – |
| MSKKASRKSFTKGAVKVHKKNVPTRVPMRGGIRL [Gkh2] | 8 µg/mL | 1 µg/mL | 32 µg/mL | 16 µg/mL | 8 µg/mL | 16 µg/mL | – | 16 | – | – | – | – | – | – | – | – | – | – | – | – | – |
| MSSTLCRWAVKALRCTRVYKEFIWKPLVALSYVTLYLLSSVFLSQLSYPIGSWAV [Lvp1] | – | – | >128 µg/mL | – | – | >64 µg/mL | 0.5 µg/mL | >64 | – | – | – | – | – | – | – | – | – | – | – | – | MIC (μg/mL) against CFS-1292 in CAA + […] human serum ([1]; listed as Lvp1 + DTT): 2 µg/mL |
| MTKRDIEYRKALGLNPSEPLPKIVGAVTRHGATLKRPRVTALAR [SBR77] | – | – | >64 µg/mL | – | – | 4 µg/mL | >16 µg/mL | >64 | – | – | – | – | – | – | – | – | – | – | – | – | MIC (μg/mL) against CFS-1292 in CAA + […] human serum ([1]; listed as SBR77 (Sbr1)): 0.5 µg/mL |

Reference: patent US20220401514A1, “ANTIMICROBIAL, BACTERIOPHAGE-DERIVED POLYPEPTIDES AND THEIR USE AGAINST GRAM-NEGATIVE AND ACID-FAST BACTERIA” (CONTRAFECT CORPORATION, priority 2019, published 2022)
